The experiment has as its target T1, human recombinant ALK1 (GST fused to ALK1 intracellular domain [His142-Gln503]) (Homo sapiens, UniProt P37023).
T1 construct: GST fused to ALK1 intracellular domain [His142-Gln503]; made in house
T1 sequence (P37023 142-503): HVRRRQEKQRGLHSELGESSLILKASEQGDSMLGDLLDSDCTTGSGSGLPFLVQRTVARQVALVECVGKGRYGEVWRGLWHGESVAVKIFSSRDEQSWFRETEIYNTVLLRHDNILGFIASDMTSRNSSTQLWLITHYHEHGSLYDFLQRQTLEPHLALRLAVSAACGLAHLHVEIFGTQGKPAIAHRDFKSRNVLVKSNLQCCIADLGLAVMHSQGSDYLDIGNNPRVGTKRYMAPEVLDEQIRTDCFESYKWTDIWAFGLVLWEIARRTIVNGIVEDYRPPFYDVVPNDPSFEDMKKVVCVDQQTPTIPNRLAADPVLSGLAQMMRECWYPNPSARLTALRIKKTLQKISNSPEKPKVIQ
Briefly: ALK1-Kinase Flashplate-Assay. In kind it is biochemical. The conditions noted are these: 0.5 μM ATP, biotinylated α-casein substrate; read-out: Assay 1 (ALK1-Kinase Flashplate-Assay IC50 class). Summed up: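 Radiometric Flashplate assay at 20 °C: GST-ALK1 intracellular domain (5 ng/well) with 1 μM biotinylated bovine α-casein, 0.5 μM ATP plus [γ-33P]ATP in Tris pH 8.0, 1 mM MnCl2, 1% or 5% DMSO, 60 min. Normalised to no-inhibitor (0%) and 10 mM EDTA (100%); IC50 by 4-parameter fit.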

The term IC50 denotes the concentration that inhibits the measured activity by half. For the compound `COc1cc(-c2cnn3ccc(Nc4ccc(F)c(Cl)c4)nc23)cc(OC)c1OC` [Example 259, (3-Chloro-4-fluoro-phenyl)-[3-(3,4,5-trimethoxy-phenyl)-pyrazolo[1,5-a]pyrimidin-5-yl]-amine], the IC50 fell in the range of 1000 to 10000 nM.

For the compound `CC(=O)c1cccc(-c2cnn3ccc(Nc4ccc(C(C)C)cc4)nc23)c1` [Example 266, 1-{3-[5-(4-Isopropyl-phenylamino)-pyrazolo[1,5-a]pyrimidin-3-yl]-phenyl}-ethanone], the concentration for half-maximal inhibition (IC50) fell in the range of 1000 to 10000 nM.

As to `Oc1cccc(-c2cnn3ccc(Nc4ccccc4)nc23)c1` [Example 271, 3-(5-Phenylamino-pyrazolo[1,5-a]pyrimidin-3-yl)-phenol], the IC50 fell in the range of 1000 to 10000 nM.

Take `OCc1cccc(-c2cnn3ccc(Nc4ccccc4)nc23)c1` [Example 272, [3-(5-Phenylamino-pyrazolo[1,5-a]pyrimidin-3-yl)-phenyl]-methanol]: the half-maximal inhibitory concentration (IC50) is less than 1000 nM.

With `CC(C)c1ccc(Nc2ccn3ncc(-c4cccc(CO)c4)c3n2)cc1` [Example 275, {3-[5-(4-Isopropyl-phenylamino)-pyrazolo[1,5-a]pyrimidin-3-yl]-phenyl}-methanol], the concentration for half-maximal inhibition (IC50) is 1000 to 10000 nM.

As for `COc1cc(-c2cnn3ccc(Nc4ccc(C(C)C)cc4)nc23)ccc1O` [Example 277, 4-[5-(4-Isopropyl-phenylamino)-pyrazolo[1,5-a]pyrimidin-3-yl]-2-methoxy-phenol], the IC50 was less than 1000 nM.

With `c1ccc(Nc2ccn3ncc(-c4cccnc4)c3n2)cc1` [Example 278, Phenyl-(3-pyridin-3-yl-pyrazolo[1,5-a]pyrimidin-5-yl)-amine], the 50% inhibitory concentration (IC50) fell in the range of 1000 to 10000 nM.

For the compound `c1ccc(Nc2ccn3ncc(-c4ccsc4)c3n2)cc1` [Example 280, Phenyl-(3-thiophen-3-yl-pyrazolo[1,5-a]pyrimidin-5-yl)-amine], the IC50 was 1000 to 10000 nM.

For `Oc1ccc(-c2cnn3ccc(Nc4ccccc4)nc23)cc1` [Example 282, 4-(5-Phenylamino-pyrazolo[1,5-a]pyrimidin-3-yl)-phenol], the IC50 was in the range of 1000 to 10000 nM.

For `CC(=O)Nc1cccc(-c2cnn3ccc(Nc4ccccc4)nc23)c1` [Example 283, N-[3-(5-Phenylamino-pyrazolo[1,5-a]pyrimidin-3-yl)-phenyl]-acetamide], the IC50 lay in the range of 1000 to 10000 nM.

On to `c1cncc(CNc2ccn3ncc(-c4ccc5c(c4)OCO5)c3n2)c1` [Example 290, (3-Benzo[1,3]dioxol-5-yl-pyrazolo[1,5-a]pyrimidin-5-yl)-pyridin-3-ylmethyl-amine], for which the IC50 was in the range of 1000 to 10000 nM.

In the case of `c1cncc(CNc2ccn3ncc(-c4ccsc4)c3n2)c1` [Example 291, Pyridin-3-ylmethyl-(3-thiophen-3-yl-pyrazolo[1,5-a]pyrimidin-5-yl)-amine], the IC50 is 1000 to 10000 nM.

Take `COc1ccc(-c2cnn3ccc(NCc4cccnc4)nc23)cc1OC` [Example 292, [3-(3,4-Dimethoxy-phenyl)-pyrazolo[1,5-a]pyrimidin-5-yl]-pyridin-3-ylmethyl-amine]: the IC50 is 1000 to 10000 nM.

For `Oc1ccc(-c2cnn3ccc(NCc4cccnc4)nc23)cc1` [Example 293, 4-{5-[(Pyridin-3-ylmethyl)-amino]-pyrazolo[1,5-a]pyrimidin-3-yl}-phenol], the IC50 lay in the range of 1000 to 10000 nM.

In the case of `COc1cc(-c2cnn3ccc(Nc4cccc(Cl)c4)nc23)cc(OC)c1OC` [Example 306, (3-Chloro-phenyl)-[3-(3,4,5-trimethoxy-phenyl)-pyrazolo[1,5-a]pyrimidin-5-yl]-amine], the IC50 is less than 1000 nM.

For `Oc1cccc(-c2cnn3ccc(Nc4cccc(Cl)c4)nc23)c1` [Example 311, 3-[5-(3-Chloro-phenylamino)-pyrazolo[1,5-a]pyrimidin-3-yl]-phenol], the half-maximal inhibitory concentration (IC50) was 1000 to 10000 nM.

With `OCc1cccc(-c2cnn3ccc(Nc4cccc(Cl)c4)nc23)c1` [Example 312, {3-[5-(3-Chloro-phenylamino)-pyrazolo[1,5-a]pyrimidin-3-yl]-phenyl}-methanol], the half-maximal inhibitory concentration (IC50) is 1000 to 10000 nM.

The record behind these values is US20080039455A1, “PYRAZOLOPYRIMIDINES AND SALTS THEREOF, PHARMACEUTICAL COMPOSITIONS COMPRISING SAME, METHODS OF PREPARING SAME AND USES OF SAME” (priority 2006, published 2008).
